{"source": "patent US20170356048A1", "about": "“METHOD FOR PREDICTING RECEPTIVITY TO TARGETED ANTICANCER DRUG” (CBSBIOSCIENCE INC., priority 2014, published 2017)", "key": {"[1]": {"system": "liver cancer", "assay": "Rate of response to sorafenib treatment (reduction in tumor size by CT and MRI, mRECIST) in liver cancer patients stratified by risk score or marker gene expression", "type": "in vivo, human", "method": "In the following manner, RNA was extracted from each of the tissues and synthesized into cDNA.\nThe risk scores of a total of 29 liver cancer patients were calculated, and the risk score distribution of responders to sorafenib and the risk score distribution of non-responders to sorafenib were examined. Herein, whether or not sorafenib would have a therapeutic effect was determined based on the degree of reduction in tumor size by CT and MRI imagings, and criteria for the determination followed mRECIST (modified Response Evaluation Criteria in Solid tumors) criteria version 1.1.\nIn addition, after stratification of the liver cancer patients by classification, the rate of response to sorafenib treatment was examined in order to confirm improvement in clinical responses, and the results of the examination are shown in Table 5 below."}, "[2]": {"system": "hepatocellular carcinoma", "conditions": "cited from earlier work"}}, "data": [{"compound": "CNC(=O)c1cc(Oc2ccc(NC(=O)Nc3ccc(Cl)c(C(F)(F)F)c3)cc2)ccn1", "note": "[sorafenib]", "values": [{"measurement": "Response rate (%)", "setting": "[1]; liver cancer patients with CDH1 expression ≦0.0067, 3 responders, 13 non-responders", "value": 18.75, "unit": "%"}, {"measurement": "Response rate (%)", "setting": "[1]; liver cancer patients with ID2 expression ≦0.4965, 3 responders, 12 non-responders", "value": 20.0, "unit": "%"}, {"measurement": "Response rate (%)", "setting": "[1]; liver cancer patients with MMP9 expression >0.0433, 3 responders, 15 non-responders", "value": 16.67, "unit": "%"}, {"measurement": "Response rate (%)", "setting": "[1]; liver cancer patients with TCF3 expression >0.3711, 2 responders, 1 non-responder", "value": 66.67, "unit": "%"}, {"measurement": "Response rate (%)", "setting": "[1]; liver cancer patients with risk score (CDH1, ID2, MMP9, TCF3) >87.59, 3 responders, 8 non-responders", "value": 27.27, "unit": "%"}, {"measurement": "treatment rate", "setting": "[2]; hepatocellular carcinoma, unselected patients", "value": "2-3%"}, {"measurement": "therapeutic effect", "setting": "[2]; known value, NEJM2008 359(4):378-390", "value": "about 2.3%"}]}]}
